Broadly, the IC50 is the concentration that inhibits the measured activity by half.

Type in all cases: biochemical
Assay [1] has as its target T1, human JAK1 (a.a. 837-1142) (Homo sapiens, UniProt P23458).
T1 construct: human JAK1 (a.a. 837-1142); His tag (N); made in house; host or cells: insect cells (baculovirus)
The experiment in a line: In vitro JAK kinase assay (HTRF, phosphorylation of a biotinylated peptide), JAK1. The conditions noted are these: Table B1; read-out: JAK1 IC50. A digest of the protocol: (§1)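 Kinase reactions ran at room temperature for 1 h with ATP matched per isoform (JAK1 90 μM, JAK2 30 μM, JAK3 3 μM). After an EDTA stop, the phosphorylated biotin-peptide was read by HTRF using Eu-Py20 and SA-APC after 40 min binding.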
(In general: In TR-FRET formats the signal depends on donor and acceptor labels being close together.)

The target in assay [2] is T2, human JAK2 (a.a. 828-1132) (Homo sapiens, UniProt O60674).
T2 construct: JAK2 (a.a. 828-1132); His tag (N); made in house; host or cells: insect cells (baculovirus)
T2 sequence (O60674 828-1132): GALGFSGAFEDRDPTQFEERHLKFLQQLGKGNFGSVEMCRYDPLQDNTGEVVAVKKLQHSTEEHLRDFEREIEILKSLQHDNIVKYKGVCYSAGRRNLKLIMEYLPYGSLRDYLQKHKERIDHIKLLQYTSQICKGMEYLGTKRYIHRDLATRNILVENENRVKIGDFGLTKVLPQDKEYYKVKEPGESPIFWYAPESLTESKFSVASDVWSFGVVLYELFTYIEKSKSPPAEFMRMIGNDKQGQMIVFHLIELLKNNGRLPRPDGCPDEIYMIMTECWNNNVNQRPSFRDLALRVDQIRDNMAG
Briefly: In vitro JAK kinase assay (HTRF, phosphorylation of a biotinylated peptide), JAK2. The conditions noted are these: Table B1. A digest of the protocol: as §1

The target of assay [3] is T3, human JAK3 (a.a. 781-1124) (Homo sapiens, UniProt P52333).
T3 construct: JAK3 (a.a. 781-1124); His tag (N); made in house; host or cells: insect cells (baculovirus)
T3 sequence (P52333 781-1124): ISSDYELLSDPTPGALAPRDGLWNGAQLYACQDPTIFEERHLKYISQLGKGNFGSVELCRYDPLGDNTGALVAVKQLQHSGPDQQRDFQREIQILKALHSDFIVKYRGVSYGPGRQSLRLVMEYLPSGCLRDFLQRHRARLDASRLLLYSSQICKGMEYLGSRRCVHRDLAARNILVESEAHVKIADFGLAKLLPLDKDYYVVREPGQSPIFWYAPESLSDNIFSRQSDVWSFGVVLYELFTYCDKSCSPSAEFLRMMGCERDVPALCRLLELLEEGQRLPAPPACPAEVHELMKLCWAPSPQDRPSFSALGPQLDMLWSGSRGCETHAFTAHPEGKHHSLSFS
Briefly: In vitro JAK kinase assay (HTRF, phosphorylation of a biotinylated peptide), JAK3. The conditions noted are these: Table B1. An outline of the steps: as §1

The next assay addresses TYK2 (Homo sapiens, UniProt P29597). Briefly: TYK2 kinase inhibition (Table A1). The conditions noted are these: Table B1.
Assay [4] addresses T4, Recombinant Human Anaplastic Lymphoma Kinase (Homo sapiens, UniProt Q9UM73).
T4 construct: purchased Invitrogen, Carlsbad, Calif
Briefly: ALK HTRF kinase assay. To be noted: for ALK % of inhibition at a concentration of 500 nM or 1 mM: compound at a concentration of 500 nM or 1 mM (not specified), cells shown as percentage; for IC50: Table B1, cells without percent sign. An outline of the steps:
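TR-FRET read-out (Eu anti-pTyr antibody + streptavidin-APC) of biotin-peptide phosphorylation by recombinant human enzyme; IC50 by sigmoidal fit with top/bottom baselines and Hill slope.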

The structures appear in SMILES notation. Where a name gives a salt, the structure may show the parent alone.

T4 sequence (Q9UM73 19-1620): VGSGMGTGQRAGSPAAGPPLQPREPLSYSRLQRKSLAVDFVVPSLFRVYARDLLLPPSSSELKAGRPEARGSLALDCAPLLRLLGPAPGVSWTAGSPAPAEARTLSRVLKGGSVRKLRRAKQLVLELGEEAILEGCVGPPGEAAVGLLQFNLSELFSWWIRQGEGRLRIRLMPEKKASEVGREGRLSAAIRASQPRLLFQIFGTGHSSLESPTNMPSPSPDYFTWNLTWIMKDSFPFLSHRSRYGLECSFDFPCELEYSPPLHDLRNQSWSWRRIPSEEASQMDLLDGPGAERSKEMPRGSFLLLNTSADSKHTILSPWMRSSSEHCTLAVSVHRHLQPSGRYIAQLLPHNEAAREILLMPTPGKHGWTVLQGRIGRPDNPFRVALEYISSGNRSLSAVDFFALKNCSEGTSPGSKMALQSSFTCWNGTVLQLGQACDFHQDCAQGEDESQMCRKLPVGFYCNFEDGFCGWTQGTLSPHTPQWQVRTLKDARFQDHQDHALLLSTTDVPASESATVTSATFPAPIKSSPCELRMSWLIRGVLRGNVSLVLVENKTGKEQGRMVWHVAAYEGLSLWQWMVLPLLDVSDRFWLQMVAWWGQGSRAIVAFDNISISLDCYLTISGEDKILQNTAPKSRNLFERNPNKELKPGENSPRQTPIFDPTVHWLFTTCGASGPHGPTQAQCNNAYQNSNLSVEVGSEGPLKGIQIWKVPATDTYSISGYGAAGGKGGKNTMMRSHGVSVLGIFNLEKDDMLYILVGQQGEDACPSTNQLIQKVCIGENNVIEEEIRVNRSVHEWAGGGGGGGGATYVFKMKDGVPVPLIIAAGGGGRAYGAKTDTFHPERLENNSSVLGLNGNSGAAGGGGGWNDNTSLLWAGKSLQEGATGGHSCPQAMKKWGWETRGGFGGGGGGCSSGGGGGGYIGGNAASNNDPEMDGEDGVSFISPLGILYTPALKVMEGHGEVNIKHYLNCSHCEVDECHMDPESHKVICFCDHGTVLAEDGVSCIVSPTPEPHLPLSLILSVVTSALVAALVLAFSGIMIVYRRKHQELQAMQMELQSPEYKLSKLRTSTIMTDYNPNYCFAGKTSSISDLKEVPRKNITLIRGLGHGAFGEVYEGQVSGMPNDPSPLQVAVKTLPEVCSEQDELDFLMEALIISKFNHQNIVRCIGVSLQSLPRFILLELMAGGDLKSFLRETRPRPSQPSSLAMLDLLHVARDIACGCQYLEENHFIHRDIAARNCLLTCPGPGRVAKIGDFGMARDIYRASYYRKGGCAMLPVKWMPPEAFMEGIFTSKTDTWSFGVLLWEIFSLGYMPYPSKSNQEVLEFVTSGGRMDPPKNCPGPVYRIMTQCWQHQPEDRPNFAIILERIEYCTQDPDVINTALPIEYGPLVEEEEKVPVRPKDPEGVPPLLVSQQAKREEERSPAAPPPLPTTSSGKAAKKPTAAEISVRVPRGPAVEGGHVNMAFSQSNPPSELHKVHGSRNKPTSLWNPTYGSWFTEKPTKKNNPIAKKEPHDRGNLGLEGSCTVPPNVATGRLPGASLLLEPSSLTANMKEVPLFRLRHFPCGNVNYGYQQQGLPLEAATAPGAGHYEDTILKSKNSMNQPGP
Sequence of TYK2 (P29597 whole entry): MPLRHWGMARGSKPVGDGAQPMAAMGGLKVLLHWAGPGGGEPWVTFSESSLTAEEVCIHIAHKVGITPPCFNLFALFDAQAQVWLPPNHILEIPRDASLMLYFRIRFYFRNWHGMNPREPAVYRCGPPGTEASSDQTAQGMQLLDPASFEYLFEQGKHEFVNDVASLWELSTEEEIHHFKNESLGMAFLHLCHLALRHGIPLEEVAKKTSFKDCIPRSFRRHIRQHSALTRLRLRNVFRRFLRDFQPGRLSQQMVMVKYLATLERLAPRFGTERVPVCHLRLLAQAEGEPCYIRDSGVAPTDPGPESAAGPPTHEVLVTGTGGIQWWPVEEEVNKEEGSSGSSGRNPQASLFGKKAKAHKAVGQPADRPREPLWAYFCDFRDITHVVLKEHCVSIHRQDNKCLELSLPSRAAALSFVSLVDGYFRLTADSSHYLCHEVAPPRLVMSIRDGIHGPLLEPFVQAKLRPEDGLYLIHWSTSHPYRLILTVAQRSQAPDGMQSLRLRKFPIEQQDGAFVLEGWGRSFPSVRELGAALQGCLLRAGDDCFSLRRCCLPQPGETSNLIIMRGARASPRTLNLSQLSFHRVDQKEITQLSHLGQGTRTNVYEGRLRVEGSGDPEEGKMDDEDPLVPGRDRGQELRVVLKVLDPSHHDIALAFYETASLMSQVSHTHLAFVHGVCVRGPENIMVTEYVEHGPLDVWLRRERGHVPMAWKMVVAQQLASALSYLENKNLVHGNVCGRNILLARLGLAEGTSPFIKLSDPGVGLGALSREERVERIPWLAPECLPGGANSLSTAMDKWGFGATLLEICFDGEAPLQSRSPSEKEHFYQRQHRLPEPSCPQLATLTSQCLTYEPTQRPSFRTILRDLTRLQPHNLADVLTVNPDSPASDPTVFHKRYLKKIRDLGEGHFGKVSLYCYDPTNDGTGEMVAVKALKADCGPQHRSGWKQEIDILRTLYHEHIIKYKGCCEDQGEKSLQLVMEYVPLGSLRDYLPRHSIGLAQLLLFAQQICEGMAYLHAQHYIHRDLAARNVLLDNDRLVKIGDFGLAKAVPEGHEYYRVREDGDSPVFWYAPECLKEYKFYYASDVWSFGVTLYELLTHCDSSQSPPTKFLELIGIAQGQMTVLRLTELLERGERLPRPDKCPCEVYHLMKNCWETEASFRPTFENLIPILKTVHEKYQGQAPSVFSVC
T1 sequence (P23458 849-1154): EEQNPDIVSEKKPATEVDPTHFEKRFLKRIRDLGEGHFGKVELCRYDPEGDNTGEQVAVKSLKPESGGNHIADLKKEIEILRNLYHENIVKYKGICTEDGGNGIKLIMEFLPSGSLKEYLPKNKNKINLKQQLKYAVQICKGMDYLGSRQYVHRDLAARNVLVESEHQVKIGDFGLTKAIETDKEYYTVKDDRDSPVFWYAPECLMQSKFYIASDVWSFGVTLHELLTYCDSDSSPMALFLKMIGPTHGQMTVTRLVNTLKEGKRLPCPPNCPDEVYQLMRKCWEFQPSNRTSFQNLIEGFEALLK

For `CC(=O)N1CC[C@@H](NC(=O)Nc2ccc3cc2CCc2cccc(c2)Nc2ncc(Cl)c(n2)N3)C1` [Example B177, N-[(3R)-1-Acetylpyrrolidin-3-yl]-N′-[6-chloro-2,4,8,22-tetraazatetracyclo[14.3.1.1(3,7).1(9,13)]docosa-1(20),3(22),4,6,9(21),10,12,16,18-nonaen-12-yl]urea trifluoroacetate], the IC50 in assay [1] was 3.1 nM; in assay [2] it was 5.4 nM; in assay [3], 46 nM; on TYK2 it was 39 nM. Also, in assay [4], the “ALK % of inhibition at a concentration of 500 nM or 1 mM” value (“ALK % of inhibition” below) worked out at 20%.
Turning to `CS(=O)(=O)N1CC[C@@H](NC(=O)Nc2ccc3cc2CCc2cccc(c2)Nc2ncc(Cl)c(n2)N3)C1` [Example B178, N-[6-Chloro-2,4,8,22-tetraazatetracyclo[14.3.1.1(3,7).1(9,13)]docosa-1(20),3(22),4,6,9(21),10,12,16,18-nonaen-12-yl]-N′-[(3R)-1-(methylsulfonyl)pyrrolidin-3-yl]urea trifluoroacetate], the IC50 in assay [1] is 0.82 nM; in assay [2], 1.1 nM; in assay [3] it was 17 nM; against TYK2, 2.6 nM. Also, in assay [4], the “ALK % of inhibition” value is 24%.
The corresponding values for `NS(=O)(=O)N1CC[C@@H](NC(=O)Nc2ccc3cc2CCc2cccc(c2)Nc2ncc(Cl)c(n2)N3)C1` [Example B179, (3R)-3-[({[6-Chloro-2,4,8,22-tetraazatetracyclo[14.3.1.1(3,7).1(9,13)]docosa-1(20),3(22),4,6,9(21),10,12,16,18-nonaen-12-yl]amino}carbonyl)amino]pyrrolidine-1-sulfonamide trifluoroacetate] are 0.23 nM, 0.84 nM, 1.3 nM, 2.8 nM and 43%.
The matching figures for `O=C(Nc1ccc2cc1CCc1cccc(c1)Nc1ncc(Cl)c(n1)N2)NC1CCNCC1` [Example B181, N-[6-Chloro-2,4,8,22-tetraazatetracyclo[14.3.1.1(3,7).1(9,13)]docosa-1(20),3(22),4,6,9(21),10,12,16,18-nonaen-12-yl]-N′-piperidin-4-ylurea dihydrochloride]: 70 nM, 177 nM, 236 nM, 226 nM and 3.7%.
Consider `CS(=O)(=O)N1CCC(NC(=O)Nc2ccc3cc2CCc2cccc(c2)Nc2ncc(Cl)c(n2)N3)CC1` [Example B182, N-[6-Chloro-2,4,8,22-tetraazatetracyclo[14.3.1.1(3,7).1(9,13)]docosa-1(20),3(22),4,6,9(21),10,12,16,18-nonaen-12-yl]-N′-[1-(methylsulfonyl)piperidin-4-yl]urea trifluoroacetate], for which the IC50 in assay [1] amounted to 1.2 nM; in assay [2], 6.2 nM; in assay [3] it was 44 nM; on TYK2 it was 17 nM. For the same molecule, the “ALK % of inhibition” value in assay [4] was 29%.
The matching figures for `NS(=O)(=O)N1CCC(NC(=O)Nc2ccc3cc2CCc2cccc(c2)Nc2ncc(Cl)c(n2)N3)CC1` [Example B183, 4-[({[6-Chloro-2,4,8,22-tetraazatetracyclo[14.3.1.1(3,7).1(9,13)]docosa-1(20),3(22),4,6,9(21),10,12,16,18-nonaen-12-yl]amino}carbonyl)amino]piperidine-1-sulfonamide trifluoroacetate]: 2.1 nM, 1 nM, 14 nM, 7 nM and 26%.
Consider `NS(=O)(=O)Nc1ccc2cc1CCc1cccc(c1)Nc1ncc(Cl)c(n1)N2` [Example B184, N-[6-Chloro-2,4,8,22-tetraazatetracyclo[14.3.1.1(3,7).1(9,13)]docosa-1(20),3(22),4,6,9(21),10,12,16,18-nonaen-12-yl]sulfamide trifluoroacetate], for which the IC50 in assay [1] amounted to 0.1 nM; in assay [2] it was 0.1 nM; in assay [3], 0.1 nM; on TYK2 it was 0.14 nM. For the same molecule, the “ALK % of inhibition” value in assay [4] is on record as 82%.
As to `CC(C)(C)OC(=O)NCCNC(=O)Nc1ccc2cc1CCc1cccc(c1)Nc1ncc(Cl)c(n1)N2` [Example B185, tert-Butyl {2-[({[6-chloro-2,4,8,22-tetraazatetracyclo[14.3.1.1(3,7).1(9,13)]docosa-1(20),3(22),4,6,9(21),10,12,16,18-nonaen-12-yl]amino}carbonyl)amino]ethyl}carbamate], the IC50 in assay [1] worked out at 0.62 nM; in assay [2] it was 3.9 nM; in assay [3] it was 46 nM; against TYK2, 4 nM. Besides, in assay [4], the “ALK % of inhibition” value was determined as 12%.
The matching figures for `CS(=O)(=O)NCCNC(=O)Nc1ccc2cc1CCc1cccc(c1)Nc1ncc(Cl)c(n1)N2` [Example B187, N-{2-[({[6-Chloro-2,4,8,22-tetraazatetracyclo[14.3.1.1(3,7).1(9,13)]docosa-1(20),3(22),4,6,9(21),10,12,16,18-nonaen-12-yl]amino}carbonyl)amino]ethyl}methanesulfonamide trifluoroacetate]: 0.9 nM, 0.4 nM, 2.4 nM, 1.9 nM and 29%.
The matching figures for `CC(C)NC(=O)NCCNC(=O)Nc1ccc2cc1CCc1cccc(c1)Nc1ncc(Cl)c(n1)N2` [Example B188, N-[6-Chloro-2,4,8,22-tetraazatetracyclo[14.3.1.1(3,7).1(9,13)]docosa-1(20),3(22),4,6,9(21),10,12,16,18-nonaen-12-yl]-N′-(2-{[(isopropylamino)carbonyl]amino}ethyl)urea trifluoroacetate]: 4 nM, 7.7 nM, 52 nM, 13 nM and 24%.
The corresponding values for `O=C(NCCNC(=O)c1ccccc1)Nc1ccc2cc1CCc1cccc(c1)Nc1ncc(Cl)c(n1)N2` [Example B189, N-{2-[({[6-Chloro-2,4,8,22-tetraazatetracyclo[14.3.1.1(3,7).1(9,13)]docosa-1(20),3(22),4,6,9(21),10,12,16,18-nonaen-12-yl]amino}carbonyl)amino]ethyl}benzamide trifluoroacetate] are 5 nM, 6.7 nM, 35 nM, 22 nM and 15%.
Consider `O=C(NCCNC(=O)c1ccccn1)Nc1ccc2cc1CCc1cccc(c1)Nc1ncc(Cl)c(n1)N2` [Example B190, N-{2-[({[6-Chloro-2,4,8,22-tetraazatetracyclo[14.3.1.1(3,7).1(9,13)]docosa-1(20),3(22),4,6,9(21),10,12,16,18-nonaen-12-yl]amino}carbonyl)amino]ethyl}pyridine-2-carboxamide trifluoroacetate], for which the IC50 in assay [1] worked out at 5 nM; in assay [2], 10 nM; in assay [3] it was 61 nM; at TYK2, 19 nM. For the same molecule, in assay [4], the “ALK % of inhibition” value was 11%.
For `Clc1cnc2nc1Nc1cc(cc(CN3CCNCC3)c1)CCc1cccc(c1)N2` [Example B191, 6-Chloro-11-(piperazin-1-ylmethyl)-2,4,8,22-tetraazatetracyclo[14.3.1.1(3,7).1(9,13)]docosa-1(20),3(22),4,6,9(21),10,12,16,18-nonaene dihydrochloride], the IC50 came out at 93 nM in assay [1]; 27 nM in assay [2]; 205 nM in assay [3]; 378 nM at TYK2; 1530 nM in assay [4].
The matching figures for `Fc1ccc(CN2CCN(Cc3cc4cc(c3)Nc3nc(ncc3Cl)Nc3cccc(c3)CC4)CC2)cc1` [Example B192, 6-Chloro-11-{[4-(4-fluorobenzyl)piperazin-1-yl]methyl}-2,4,8,22-tetraazatetracyclo[14.3.1.1(3,7).1(9,13)]docosa-1(20),3(22),4,6,9(21),10,12,16,18-nonaene tris(trifluoroacetate)]: 21 nM, 23 nM, 308 nM, 341 nM and > 1000 nM.
The corresponding values for `O=[N+]([O-])c1ccc(CN2CCN(Cc3cc4cc(c3)Nc3nc(ncc3Cl)Nc3cccc(c3)CC4)CC2)cc1` [Example B194, 6-Chloro-11-{[4-(4-nitrobenzyl)piperazin-1-yl]methyl}-2,4,8,22-tetraazatetracyclo[14.3.1.1(3,7).1(9,13)]docosa-1(20),3(22),4,6,9(21),10,12,16,18-nonaene tris(trifluoroacetate)] are 36 nM, 12 nM, 108 nM, 251 nM and > 1000 nM.

(Values after patent US8871753B2, “Macrocyclic compounds and their use as kinase inhibitors” (Incyte Corporation, priority 2008, dated 2014).)
